Experiments:
[1] = target: T1, human microsomal GST (MGST1) (Homo sapiens, UniProt P10620); experiment: GST activity toward CDNB; type: biochemical; details: GSH co-substrate
T1 sequence (P10620 1-155): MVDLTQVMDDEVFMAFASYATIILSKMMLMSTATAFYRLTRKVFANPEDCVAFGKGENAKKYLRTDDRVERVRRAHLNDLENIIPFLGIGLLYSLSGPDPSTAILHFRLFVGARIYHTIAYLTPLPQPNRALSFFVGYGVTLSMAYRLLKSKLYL

EXP1 = EXP1 (Plasmodium falciparum, UniProt Q8IIF0); experiment: inhibition of GSH-CDNB conjugation, Dixon plot; type: biochemical
[2] = system: C=CC1=C(C)C2=Cc3c(C=C)c(C)c4[n]3[Fe+][n]3c(c(C)c(CCC(=O)O)c3=CC3=NC(=C4)C(C)=C3CCC(=O)O)=CC1=N2; experiment: purified protein; details: 2 mM GSH, 100 nM enzyme, pH 6.5, 0.1% Triton X-100

O=[N+]([O-])c1ccc(Cl)c([N+](=O)[O-])c1 [1-chloro-2,4-dinitrobenzene]
GST activity toward CDNB [1]: comparable to that of the human microsomal GST (MGST1, Figure S3D-F)

C=CC1=C(C)C2=Cc3c(C=C)c(C)c4[n]3[Fe+][n]3c(c(C)c(CCC(=O)O)c3=CC3=NC(=C4)C(C)=C3CCC(=O)O)=CC1=N2 [hematin]
Ki (EXP1): 170 nM

EXP1 (Plasmodium falciparum 3D7)
Km [2]: 0.251 µM
kcat [2]: 7.7 s⁻¹

— PMC4167585 (Cell, 2014)
